Among the data in PubChem BioAssay (NCI) are TGI and GI50 values, retold here.

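Interpolation was linear, between the two tested concentrations surrounding the appropriate level; five concentrations were tested over 48 hours in 96-well plates. The concentration for 50% growth inhibition is given as GI50. TGI: total growth inhibition.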 Some results are limits rather than exact numbers.

Among the test systems are DLD-1 colon; HCT-116 colon; HT29 colon; LOX IMVI melanoma; MOLT-4 leukemia; OVCAR-5 ovarian; SF-295 CNS; DMS 114 small cell lung; BT-549 breast; NCI/ADR-RES ovarian.
What all share (assay): NCI anticancer screen, dose series, 48 h

As to `N/C(=C\c1ccc(OCc2ccccc2)c(OCc2ccccc2)c1[N+](=O)[O-])C(=O)O`, the TGI with DLD-1 colon, in the assay on HCT-116 colon, with HT29 colon, in the assay on LOX IMVI melanoma, in the assay on MOLT-4 leukemia and in the assay with OVCAR-5 ovarian was greater than 100 µM each time. Besides, the TGI in the assay with SF-295 CNS is greater than 100 µM.
Take `Cc1ccccc1C(=O)c1ccccc1O`: the TGI in the assay with DLD-1 colon, with DMS 114 small cell lung, in the assay on HCT-116 colon, with HT29 colon, in the assay with LOX IMVI melanoma and in the assay with MOLT-4 leukemia was greater than 100 µM in each case. Also, the TGI with OVCAR-5 ovarian and in the assay with SF-295 CNS was greater than 100 µM in each case.
For the molecule `CCC1(c2c(F)c(F)c(N)c(F)c2F)CCC(=O)NC1=O` (stereo not drawn), the TGI in the assay with DLD-1 colon, in the assay on DMS 114 small cell lung, in the assay with HCT-116 colon, with HT29 colon, in the assay on LOX IMVI melanoma and in the assay with MOLT-4 leukemia was greater than 100 µM each time. For the same molecule, the TGI with OVCAR-5 ovarian and in the assay with SF-295 CNS was greater than 100 µM in each case.
`C[S+](C)CCOC(=O)C(=[N+]=[N-])c1ccc([N+](=O)[O-])cc1`: the TGI in the assay on DMS 114 small cell lung, in the assay with HCT-116 colon, in the assay with HT29 colon, with MOLT-4 leukemia, in the assay with OVCAR-5 ovarian and in the assay with SF-295 CNS was greater than 100 µM each time.
In the case of `CC1(CO)OC(n2cc(C(=O)NC(=O)OCc3ccccc3)c(=O)[nH]c2=O)CC1O` (stereo not drawn), the TGI with DLD-1 colon, in the assay with DMS 114 small cell lung, in the assay with HCT-116 colon, in the assay with HT29 colon, in the assay with LOX IMVI melanoma and in the assay with MOLT-4 leukemia was greater than 100 µM in each case. For the same molecule, in the assay on SF-295 CNS, the TGI was greater than 100 µM.
In the case of `N#Cc1c(NN)nc(NN)c(C#N)c1-c1ccccc1`, the TGI in the assay on DLD-1 colon, with DMS 114 small cell lung, in the assay with HCT-116 colon, with HT29 colon, in the assay on LOX IMVI melanoma and in the assay on MOLT-4 leukemia was greater than 100 µM throughout. Moreover, the TGI in the assay on OVCAR-5 ovarian and in the assay with SF-295 CNS was greater than 100 µM each time.
`CCCCCCCCCCCCCC(=O)CC(=O)c1c(O)cccc1O`: the TGI in the assay with DLD-1 colon was greater than 100 µM; in the assay on DMS 114 small cell lung, 47.1 µM; in the assay on HCT-116 colon, greater than 100 µM; in the assay on HT29 colon, greater than 100 µM; in the assay on LOX IMVI melanoma, 36.3 µM; in the assay with MOLT-4 leukemia, 52.7 µM. Further, the TGI with OVCAR-5 ovarian and with SF-295 CNS was greater than 100 µM in each case.
Take `Cn1c(=O)nc2n(-c3cccc(Br)c3)c3ccccc3nc-2c1=O`: the TGI in the assay on DLD-1 colon was 29.1 µM; in the assay on DMS 114 small cell lung, 4.45 µM; in the assay with HCT-116 colon, 18.1 µM; in the assay with OVCAR-5 ovarian it was 26.1 µM; in the assay on SF-295 CNS, 18.6 µM.
For the molecule `O=C1NC(=O)C2C(=O)NC(=O)C1C2(c1ccccc1)c1cc[nH]c1` (stereo not drawn), the TGI in the assay on DLD-1 colon, with DMS 114 small cell lung, in the assay on HT29 colon, in the assay on LOX IMVI melanoma, in the assay with MOLT-4 leukemia and with OVCAR-5 ovarian was greater than 100 µM throughout. This molecule came in with a TGI in the assay with SF-295 CNS greater than 100 µM.
Regarding `CC(=O)[CH-]C(=O)c1ccccc1.CC(=O)[CH-]C(=O)c1ccccc1.CC1(C)C2CCC1(C)C([O-])C2.CC1(C)C2CCC1(C)C([O-])C2.[Ti+4]`, the GI50 with DLD-1 colon is 29.2 µM; in the assay on HCT-116 colon it was 34.9 µM; in the assay with HT29 colon it was 56.7 µM; in the assay with LOX IMVI melanoma it was 25.1 µM; with MOLT-4 leukemia, 34.8 µM; with OVCAR-5 ovarian, greater than 100 µM. Further, in the assay with SF-295 CNS, the GI50 is 38.9 µM. Besides, the TGI in the assay on DLD-1 colon, in the assay with HCT-116 colon, with HT29 colon, with LOX IMVI melanoma, with MOLT-4 leukemia and in the assay with OVCAR-5 ovarian was greater than 100 µM throughout. Also, the TGI with SF-295 CNS is greater than 100 µM.
As to `CCC/C(=N/NC(=O)C(N)=O)C(CC)C(=O)CCC(=O)N(Cc1ccccc1)Cc1ccccc1` (stereo not drawn), the TGI in the assay with DMS 114 small cell lung, with HCT-116 colon, in the assay on HT29 colon, with LOX IMVI melanoma, in the assay with MOLT-4 leukemia and in the assay on OVCAR-5 ovarian was greater than 100 µM throughout. In addition, the TGI with SF-295 CNS was greater than 100 µM.
As to `CC(=O)[CH-]C(=O)c1ccccc1.CC(=O)[CH-]C(=O)c1ccccc1.CC(C)CCCC(C)[C@H]1CCC2[C@@H]3CC=C4C[C@@H]([O-])CC[C@]4(C)C3CC[C@@]21C.CC[O-].[Ti+4]` (stereo partly drawn), the GI50 in the assay on DLD-1 colon was 93.7 µM; in the assay on HCT-116 colon it was 45.7 µM; in the assay on HT29 colon, 64 µM; in the assay on LOX IMVI melanoma it was 81.1 µM; in the assay on MOLT-4 leukemia it was 16.4 µM; in the assay on OVCAR-5 ovarian it was greater than 100 µM. Moreover, the GI50 in the assay with SF-295 CNS was 40.9 µM. Further, the TGI in the assay with DLD-1 colon is greater than 100 µM; in the assay on HCT-116 colon, greater than 100 µM; with HT29 colon it was greater than 100 µM; in the assay with LOX IMVI melanoma, greater than 100 µM; in the assay on MOLT-4 leukemia, 63.1 µM; in the assay on OVCAR-5 ovarian, greater than 100 µM. In addition, the TGI in the assay on SF-295 CNS was greater than 100 µM.
Consider `O=[N+]([O-])c1nccn1CC(O)CN1CC1` (stereo not drawn), for which the TGI with DLD-1 colon, in the assay on DMS 114 small cell lung, with HCT-116 colon, in the assay with HT29 colon, with MOLT-4 leukemia and in the assay on OVCAR-5 ovarian was greater than 100 µM in each case. Moreover, in the assay on SF-295 CNS, the TGI is greater than 100 µM.
As to `N[C@@H]1CCCC[C@H]1N.O=C([O-])C(=O)[O-].[Pt+4]`, the GI50 in the assay with BT-549 breast was 12.3 µM; with DLD-1 colon, 3.46 µM; in the assay on HCT-116 colon it was 0.378 µM; in the assay with HT29 colon, 0.175 µM; with LOX IMVI melanoma it was 1.13 µM; with MOLT-4 leukemia, 0.137 µM. Further, the results for the GI50 in the assay with NCI/ADR-RES ovarian, in the assay on OVCAR-5 ovarian and in the assay on SF-295 CNS were 0.0318 µM, 0.671 µM and 4.71 µM, respectively. In addition, the TGI in the assay on BT-549 breast was greater than 100 µM; with DLD-1 colon, greater than 100 µM; with HCT-116 colon, greater than 100 µM; with HT29 colon, greater than 8.25 µM; in the assay with LOX IMVI melanoma, greater than 100 µM; with MOLT-4 leukemia, 15.6 µM. In addition, the TGI is 30.4 µM in the assay with NCI/ADR-RES ovarian, 21.2 µM in the assay on OVCAR-5 ovarian and greater than 100 µM with SF-295 CNS.
For `O=C(Nc1cccc(Cl)c1)c1ccc(NC2=C(Cl)C(=O)N(Cc3ccccc3)C2=O)cc1`, the GI50 with BT-549 breast was 8.33 µM; in the assay on HCT-116 colon, 6.31 µM; in the assay with HT29 colon, 8.43 µM; with LOX IMVI melanoma it was 4.24 µM; in the assay with MOLT-4 leukemia, 1.67 µM; in the assay with NCI/ADR-RES ovarian it was 9.53 µM. The GI50 is 24.8 µM with OVCAR-5 ovarian and 17.7 µM in the assay with SF-295 CNS. The TGI in the assay with BT-549 breast is 31.5 µM; with HCT-116 colon, 17.2 µM; with HT29 colon, greater than 100 µM; in the assay on LOX IMVI melanoma, 9.27 µM; in the assay on MOLT-4 leukemia it was 4.89 µM; in the assay on NCI/ADR-RES ovarian it was 24.9 µM. Further, the results for the TGI in the assay with OVCAR-5 ovarian and in the assay on SF-295 CNS were greater than 61.6 µM and 56.9 µM, respectively.
On to `CCOc1ccc(-c2nonc2NC(=O)c2cccc(C)c2)cc1OCC`, for which the GI50 in the assay on BT-549 breast is greater than 100 µM; in the assay on HCT-116 colon it was 35.7 µM; with HT29 colon, greater than 100 µM; in the assay with LOX IMVI melanoma, greater than 100 µM; in the assay with MOLT-4 leukemia it was greater than 100 µM; in the assay on NCI/ADR-RES ovarian it was greater than 100 µM. Moreover, the results for the GI50 in the assay on OVCAR-5 ovarian and with SF-295 CNS were greater than 100 µM and 30.4 µM, respectively. Further, the TGI with BT-549 breast, in the assay on HCT-116 colon, in the assay on HT29 colon, in the assay on LOX IMVI melanoma, in the assay on MOLT-4 leukemia and in the assay on NCI/ADR-RES ovarian was greater than 100 µM in each case. Also, the TGI in the assay with OVCAR-5 ovarian and in the assay on SF-295 CNS was greater than 100 µM throughout.
For `C/C(=N/Nc1nc2ccccc2n1C)c1ccccn1`, the GI50 is 0.223 µM with BT-549 breast; 0.044 µM with HT29 colon; 0.0514 µM in the assay with LOX IMVI melanoma; 0.0226 µM in the assay with MOLT-4 leukemia; 0.0364 µM in the assay on NCI/ADR-RES ovarian; 0.243 µM with OVCAR-5 ovarian. Moreover, the GI50 in the assay on SF-295 CNS is 0.28 µM. The TGI with BT-549 breast was 25.5 µM; in the assay on HCT-116 colon, 14.8 µM; in the assay on HT29 colon it was 24.4 µM; in the assay with LOX IMVI melanoma, 11.4 µM; with MOLT-4 leukemia it was greater than 39.1 µM; with NCI/ADR-RES ovarian it was 0.555 µM. Further, the TGI with OVCAR-5 ovarian was found to be 39.7 µM; with SF-295 CNS, 4.97 µM.
For the molecule `Ic1ccccc1-c1ccccc1`, the GI50 in the assay on BT-549 breast is greater than 100 µM; in the assay with HCT-116 colon it was 94.9 µM; with HT29 colon, greater than 100 µM; in the assay with LOX IMVI melanoma, 42.4 µM; in the assay on MOLT-4 leukemia it was 26.8 µM; with NCI/ADR-RES ovarian, greater than 100 µM. In addition, the GI50 in the assay with OVCAR-5 ovarian and in the assay on SF-295 CNS was greater than 100 µM in each case. For the same molecule, the TGI in the assay on BT-549 breast, in the assay with HCT-116 colon, in the assay with HT29 colon, in the assay on LOX IMVI melanoma, with MOLT-4 leukemia and in the assay on NCI/ADR-RES ovarian was greater than 100 µM each time. The TGI with OVCAR-5 ovarian and in the assay on SF-295 CNS was greater than 100 µM each time.
For `NC(N)=N/N=C\c1cccc(OCc2ccccc2)c1`, the GI50 in the assay on BT-549 breast is 15 µM; with HCT-116 colon, 1.84 µM; in the assay with HT29 colon, 1.83 µM; with LOX IMVI melanoma, 1.78 µM; in the assay on MOLT-4 leukemia, 11.1 µM; with NCI/ADR-RES ovarian, 3.85 µM. The GI50 was 11.5 µM in the assay with OVCAR-5 ovarian and 4.64 µM in the assay on SF-295 CNS. Besides, the TGI in the assay with BT-549 breast was 28.4 µM; in the assay on HCT-116 colon it was 3.96 µM; with HT29 colon, 4.01 µM; in the assay with LOX IMVI melanoma, 3.4 µM; in the assay on MOLT-4 leukemia it was 27.8 µM; in the assay with NCI/ADR-RES ovarian it was 22.2 µM. The TGI came out at 33.7 µM in the assay on OVCAR-5 ovarian and 20.4 µM in the assay with SF-295 CNS.
